Source: patent US20140004182A1, “METHODS FOR THE TREATMENT OF SARCOIDOSIS” (priority 2009, published 2014)

Columns and labels:
[1] = system: Phosphodiesterase 4 enzyme purified from U937 human monocytic cells; assay: Inhibition of PDE4 (phosphodiesterase reaction with [3H]-cAMP); format: biochemical; settings: 1 μM cAMP plus 10 nM [3H]-cAMP, 45 min at 30° C., pH 7.5
Protocol: Phosphodiesterase 4 enzyme was purified from U937 human monocytic cells by gel filtration chromatography, and phosphodiesterase reactions were carried out as previously described. See, e.g., Muller et al., Bioorg. Med. Chem. Lett., 1998, 8(19): 2669-2674. Briefly, reactions were carried out in 96-well deep-well plates in 50 mM Tris HCl pH 7.5, 5 mM MgCl2, 1 μM cyclic adenosine monophosphate (cAMP), plus 10 nM [^3H]-cAMP for 45 min at 30° C. The reactions were terminated by boiling, treated with 1 mg/ml snake venom, and separated using AG-1X8 ion exchange resin (BioRad). Reactions consumed less than 15% of available substrate.

[2] = system: sarcoidosis patients with chronic cutaneous lesions despite systemic therapy; assay: Open label clinical study, Sarcoidosis Activity and Severity Index (SASI); format: in vivo, human; settings: for SASI induration score, median (range): 43 areas with induration, baseline median 2 (0-4), p<0.005, scale 0 to 4
Protocol: An open label study of sarcoidosis patients with chronic cutaneous lesions despite systemic therapy was performed to determine the safety and efficacy of (+)-2-[1-(3-ethoxy-4-methoxyphenyl)-2-methanesulfonylethyl]-4-acetylaminoisoindolin-1,3-dione therapy. Patients were on a stable treatment regimen (corticosteroids, methotrexate (max 10 mg/week), azathioprine, hydroxychloroquine, cyclophosphamide, minocycline, doxycycline, chloroquine) for at least three months prior to study entry. Patients were assessed by a previously validated scoring system for cutaneous sarcoidosis: Sarcoidosis Activity and Severity Index (SASI). Individual scores were made for erythema, induration, and desquamation on a scale of 0 to 4. For an individual area of the body, the percentage of involvement for sarcoidosis lesions was scored on a scale from 0 to 7. After establishing a baseline SASI score, patients began treatment with (+)-2-[1-(3-ethoxy-4-methoxyphenyl)-2-methanesulfonylethyl]-4-acetylaminoisoindolin-1,3-dione 20 mg twice a day over the next 12 weeks. A SASI score was determined by the same investigator at baseline and weeks 4 and 12 of treatment.
Thirteen patients completed 16 weeks of study, including 12 weeks of active drug therapy. […] Among the 13 patients, there were 59 areas with one or more positive SASI feature during treatment. Among the 43 areas with induration, there was a significant drop in the SASI score from baseline (median 2 (0-4)) after 4 weeks (median 1 (0-3), p<0.005) and 12 weeks (median 1 (0-3), p<0.005) therapy.

CCOc1cc([C@@H](CS(C)(=O)=O)N2C(=O)c3cccc(NC(C)=O)c3C2=O)ccc1OC [(+)-2-[1-(3-ethoxy-4-methoxyphenyl)-2-methanesulfonylethyl]-4-acetylaminoisoindolin-1,3-dione]
IC50 [1]: 73.5 nM
change in SASI area of involvement during therapy ([2]; 20 mg twice a day, 12 weeks): no significant change
change in SASI desquamation during therapy ([2]; 20 mg twice a day, 12 weeks): no significant change
change in SASI erythema during therapy ([2]; 20 mg twice a day, 12 weeks): no significant change
tolerability ([2]; 20 mg twice a day, 12 weeks, 13 patients): well tolerated
discontinuation of drug treatment ([2]; 13 patients, 12 weeks of active drug therapy): No patient discontinued
SASI induration score, median (range) ([2]; after 4 weeks therapy, 20 mg twice a day): 1 (0-3)
SASI induration score, median (range) ([2]; after 12 weeks therapy, 20 mg twice a day): 1 (0-3)
patients with dose reduced by 50% (one for nausea, the other for feeling jittery) ([2]; of 13 patients, continued on the reduced dose): two
improvement in skin induration ([2]; within 4 weeks of institution of therapy): significant improvement
